Data from ChEMBL document CHEMBL1129973, “HIV-1 integrase pharmacophore: discovery of inhibitors through three-dimensional database searching” (J Med Chem, 1997).

What was measured:
[1] = molecular target: T1, Human immunodeficiency virus type 1 integrase (Human immunodeficiency virus 1, UniProt Q7ZJM1); assay: Inhibitory concentration against HIV-1 integrase by strand transfer method
[2] = molecular target: T1, Human immunodeficiency virus type 1 integrase; assay: Inhibitory concentration to inhibit HIV-1 integrase by 3' -processing method
[3] = molecular target: T1, Human immunodeficiency virus type 1 integrase; assay: Inhibitory concentration to inhibit HIV-1 integrase by 3' -processing
[4] = molecular target: T1, Human immunodeficiency virus type 1 integrase; assay: Inhibitory concentration required to inhibit HIV-1 integrase by strand transfer method

T1 sequence (Q7ZJM1 whole entry): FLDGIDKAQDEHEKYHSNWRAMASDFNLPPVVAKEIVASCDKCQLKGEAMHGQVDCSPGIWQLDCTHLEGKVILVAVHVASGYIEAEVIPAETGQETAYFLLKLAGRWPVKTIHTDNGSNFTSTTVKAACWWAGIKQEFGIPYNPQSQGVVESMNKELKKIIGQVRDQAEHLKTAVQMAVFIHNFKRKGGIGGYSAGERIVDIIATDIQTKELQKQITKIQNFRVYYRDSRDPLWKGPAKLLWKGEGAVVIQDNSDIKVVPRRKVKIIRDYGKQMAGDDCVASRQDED

Compound | IC50 [1] [µM] | IC50 [2] [µM] | IC50 [3] [µM] | IC50 [4] [µM]
CC(=O)Nc1cc(S(=O)(=O)O)cc2cc(S(=O)(=O)O)cc(O)c12 | 0.29 | 0.47 | – | –
NS(=O)(=O)c1ccc(NC(=O)/C=C\C(=O)O)cc1 | > 200 | > 200 | – | –
O=C(O)c1ccccc1/C=N/NC1=CS(=O)(=O)C=C1 | > 200 | > 200 | – | –
CC1=NN(c2ccccc2)C(=O)C1/N=N/c1ccc(S(=O)(=O)Nc2cc(C)nc(C)n2)cc1 (stereo not given) | > 200 | > 200 | – | –
CC1=NN(c2ccccc2)C(=O)C1/N=N/c1ccc(S(=O)(=O)Nc2ncccn2)cc1 (stereo not given) | > 200 | > 200 | – | –
CC(=O)Nc1cc2cc(NS(=O)(=O)c3cc(C(F)(F)F)cc(C(F)(F)F)c3)ccc2oc1=O | > 200 | > 200 | – | –
CC1C(=N)/C(=N/Nc2ccc(S(=O)(=O)Nc3ccccn3)cc2)C(=O)C(C)C1=O (stereo not given) | > 200 | > 200 | – | –
CC1C(=N)/C(=N/Nc2ccc(S(=O)(=O)Nc3nccs3)cc2)C(=O)C(C)C1=O (stereo not given) | > 200 | > 200 | – | –
NS(=O)(=O)c1ccc(NC=C2C(=O)N(c3ccccc3)N(c3ccccc3)C2=O)cc1 | > 200 | > 200 | – | –
NS(=O)(=O)c1ccc(NC(=O)/C=C/C(=O)O)cc1 | > 200 | > 200 | – | –
CC1C(=N)/C(=N/Nc2ccc(S(=O)(=O)Nc3ncccn3)cc2)C(=O)C(C)C1=O (stereo not given) | > 200 | > 200 | – | –
O=C(Nc1ccc(S(=O)(=O)Nc2ccc(/N=N/c3ccc(S(=O)(=O)Nc4nccs4)cc3)cc2)cc1)C(N1CC1)(N1CC1)N1CC1 | > 200 | > 200 | – | –
O=C(CNC(=O)c1cnc2ccccc2n1)NCCCNC(=O)CNC(=O)c1cnc2ccccc2n1 | > 200 | > 200 | – | –
Cc1ccccc1CN1C2=NCCN2C(=O)C2=C1CCN(S(=O)(=O)c1ccc(Cl)c(S(N)(=O)=O)c1)C2 | > 200 | > 200 | – | –
C=C1CC(c2ccc(S(=O)(=O)N3CCOCC3)cc2)OC1=O (stereo not given) | > 200 | > 200 | – | –
COC(=O)c1noc2c1CSC1=C2CS(=O)(=O)c2ccccc21 | > 200 | > 200 | – | –
CC(=O)NCCSS(=O)(=O)CCCCCS(=O)(=O)SCCNC(C)=O | > 200 | > 200 | – | –
CC(=O)OCC1OC(n2ccc(-n3cncn3)nc2=O)CC1N=[N+]=[N-] (stereo not given) | > 200 | > 200 | – | –
CCOC(=S)SC1OC(COC(C)=O)C(OC(C)=O)C(OC(C)=O)C1OC(C)=O (stereo not given) | > 200 | > 200 | – | –
CCOC(=O)C(Cc1cn(S(=O)(=O)c2ccccc2)c2ccccc12)(NC(C)=O)C(=O)OCC | > 200 | > 200 | – | –
CCC(=O)C(C)C(=O)C(=O)NCCNC(=O)C(=O)C(C)C(=O)CC (stereo not given) | > 200 | > 200 | – | –
CC1=NN(c2ccccc2)C(=O)C1/N=N/c1ccc(S(=O)(=O)Nc2scc(C)c2C)cc1 (stereo not given) | – | – | 124 | 97
CS(=O)(=O)Nc1ccc2oc(=O)c3ccccc3c2c1 | > 200 | > 200 | – | –
NS(=O)(=O)c1ccc(NN=C2C(=O)N(c3ccccc3)N(c3ccccc3)C2=O)cc1 | > 200 | > 200 | – | –
Nc1ncnc2c1ncn2[C@@H]1O[C@H](CO[C@@H]2[C@@H](O)[C@H](OS(=O)(=O)O)[C@H](O)[C@@H](O[C@H]3O[C@@H](CO)[C@@H](O)[C@H](O)[C@@H]3N)[C@]2(O)C(=O)[C@@H](N)CO)[C@@H](O)[C@H]1O | > 200 | > 200 | – | –
O=C(O)[C@H]1OC(n2cc([N+](=O)[O-])c(=O)[nH]c2=O)[C@H](O)[C@@H]1O (stereo not given in full) | > 200 | > 200 | – | –

Other lines, results leading:

IC50 [1] [µM] | IC50 [2] [µM] | IC50 [3] [µM] | IC50 [4] [µM] | Compound
77 | 134 | – | – | CC1=NN(c2ccccc2)C(=O)C1/N=N/c1ccc(S(=O)(=O)Nc2nnc(C)s2)cc1 (stereo not given)
8.8 | 8.2 | – | – | NNS(=O)(=O)c1ccc(OCC(=O)O)cc1
143 | 193 | – | – | CC(=O)C1(/N=N/c2ccc(S(=O)(=O)Nc3onc(C)c3C)cc2)CCOC1=O (stereo not given)
> 200 | > 200 | – | – | Cc1cc(NS(=O)(=O)c2ccc(N/N=C3/C(=N)C(C)C(=O)C(C)C3=O)cc2)nc(C)n1 (stereo not given)
> 200 | > 200 | – | – | Cc1nnc(NS(=O)(=O)c2ccc(N/N=C3/C(=N)C(C)C(=O)C(C)C3=O)cc2)s1 (stereo not given)
19 | 24 | – | – | Cc1nnc(NS(=O)(=O)c2ccc(C3SC(=S)NC3=O)cc2)s1 (stereo not given)
112 | 140 | – | – | O=C(Nc1ccc(S(=O)(=O)Nc2ccc(/N=N/c3ccccc3)cc2)cc1)C(Sc1[nH]cnc2ncnc1-2)Sc1[nH]cnc2ncnc1-2
> 200 | > 200 | – | – | CC(=O)C1(/N=N/c2ccc(S(=O)(=O)Nc3ccccn3)cc2)CCOC1=O (stereo not given)
> 200 | > 200 | – | – | CC(=O)N(C(C)=O)c1nc2c(c(=O)n(C)c(=O)n2C)n1C
44.6 | 75.5 | – | – | Cc1cc(C)nc(NS(=O)(=O)c2ccc(NC(=O)c3cccn4c(=O)c5ccccc5nc34)cc2)n1
> 200 | > 200 | – | – | Cc1ccnc(NS(=O)(=O)c2ccc(N/N=C3/C(=N)C(C)C(=O)C(C)C3=O)cc2)n1 (stereo not given)
> 200 | > 200 | – | – | CCOC(=O)C(CCCCn1cnc2ncnc(Cl)c21)(NC(C)=O)C(=O)OCC
> 200 | > 200 | – | – | CC(=O)Nc1ccc(S(=O)(=O)/N=N/NCC(=O)O)cc1
> 200 | > 200 | – | – | CCOC(=O)C(/C=N/c1ccc(S(N)(=O)=O)cc1)C(=O)OCC
> 200 | > 200 | – | – | CC1=NN(c2ccccc2)C(=O)C1/N=N/c1ccc(S(=O)(=O)Nc2ccccn2)cc1 (stereo not given)
> 200 | > 200 | – | – | COc1cc(NS(=O)(=O)c2ccc(C(C)=O)cc2)nc(OC)n1
> 200 | > 200 | – | – | CC1=NN(c2ccccc2)C(=O)C1/N=N/c1ccc(S(N)(=O)=O)cc1 (stereo not given)

IC50 [1] [µM] | IC50 [2] [µM] | IC50 [3] [µM] | IC50 [4] [µM] | Compound
80 | 122 | – | – | Cc1ccnc(NS(=O)(=O)c2ccc(NC(=O)Nc3ccc(Cl)c(C(F)(F)F)c3)cc2)n1
> 200 | > 200 | – | – | CCOC(=O)COc1ccc(S(=O)(=O)c2ccc(OCC(=O)OCC)cc2)cc1
> 200 | > 200 | – | – | CS(=O)(=O)c1nc2ccc(N3C(=O)c4ccccc4C3=O)cc2s1
> 200 | > 200 | – | – | Cc1cc(C)nc(NS(=O)(=O)c2ccc(CN3C(=O)c4ccccc4C3=O)cc2)n1
> 200 | > 200 | – | – | CCOC(=O)N(CCCCCCNC(c1ccccc1)S(=O)(=O)O)c1ccccc1 (stereo not given)
13.7 | 48.3 | – | – | Cc1cc(C)nc(NS(=O)(=O)c2ccc(NC(=O)c3cccc4c(N)c5ccccc5nc34)cc2)n1
> 200 | > 200 | – | – | CCC(=O)CCC1=Nc2nnc(CCCCc3nnc4n3C(=O)C(CCC(=O)CC)=N4)n2C1=O
> 200 | > 200 | – | – | Cc1csc(NS(=O)(=O)c2ccc(N/N=C3/C(=N)C(C)C(=O)C(C)C3=O)cc2)c1C (stereo not given)
23.6 | 49 | – | – | CC1=NN(c2ccccc2)C(=O)C1/N=N/c1ccc(S(=O)(=O)Nc2nccc(C)n2)cc1 (stereo not given)
96 | 120 | – | – | Nc1nc(N)c(/N=N/c2ccc(S(=O)(=O)NC(=O)c3ccccc3)cc2)c(O)n1
178 | 244 | – | – | CC(=O)C1(/N=N/c2ccc(S(=O)(=O)Nc3nnc(C)s3)cc2)CCOC1=O (stereo not given)
14.3 | 27.9 | – | – | CC(=O)Nc1cccc2cc(S(=O)(=O)O)ccc12
2.7 | 3.4 | – | – | CC(=O)Nc1ccc(N)c2cc(S(=O)(=O)O)ccc12
61 | 71 | – | – | NC1=NNC(=O)C1/N=N/c1ccc(S(=O)(=O)Nc2nccs2)cc1 (stereo not given)
65 | 70 | – | – | CC(=O)C1(/N=N/c2ccc(S(=O)(=O)Nc3nccc(C)n3)cc2)CCOC1=O (stereo not given)
14 | 28.6 | – | – | O=C1NC(=S)SC1c1ccc(S(=O)(=O)Nc2ncccn2)cc1 (stereo not given)
126 | 209 | – | – | NS(=O)(=O)c1ccc(/N=N/C2Sc3nc4ccccc4n3C2=O)cc1 (stereo not given)
